molecular target: T1, CaV2.2 (Homo sapiens, UniProt Q00975); test: VIPR optical membrane potential assay with electrical stimulation; assay type: cell-based; details: not given
T1 construct: expressed in transfected cells; host or cells: HEK293
Method: Antagonist properties of test compounds were assessed as follows. Cells expressing the CaV of interest were placed into microtiter plates. After an incubation period, the cells were stained with fluorescent dyes sensitive to the transmembrane potential. The test compounds were added to the microtiter plate. The cells were stimulated with electrical means to evoke a CaV dependent membrane potential change from unblocked channels, which was detected and measured with trans-membrane potential-sensitive dyes. Antagonists were detected as a decreased membrane potential response to the stimulus.
VIPR® Optical Membrane Potential Assay Method with Electrical Stimulation
The following is an example of how CaV2.2 inhibition activity is measured using the optical membrane potential method. Other subtypes are performed in an analogous mode in a cell line expressing the CaV of interest.
HEK293 cells stably expressing CaV2.2 are plated into 96-well microtiter plates. After an appropriate incubation period, the cells are stained with the voltage sensitive dyes CC2-DMPE/DiSBAC2(3) as follows.
2×CC2-DMPE=20 μM CC2-DMPE: 10 mM CC2-DMPE is vortexed with an equivalent volume of 10% Pluronic, followed by vortexing in required amount of HBSS containing 10 mM HEPES. Each cell plate will require 5 mL of 2×CC2-DMPE. 50 μL of 2×CC2-DMPE is added to wells containing washed cells, resulting in a 10 μM final staining concentration. The cells are stained for 30 minutes in the dark at RT.
Vortex in required amount of Bath X with beta-cyclodextrin. Each 96 well cell plate will require 5 ml of 2×CC2DMPE. Wash plate with ELx405 with Bath X, leaving a residual volume of 50 μL/well. Add 50 μL of 2×CC2DMPE & DISBAC6(3) to each well. Stain for 30 minutes in the dark at RT.
Allow solution to sit for 10 minutes. Slowly mix in 370 mM BaCl2. This solution can be used to solvate compound plates. Note that compound plates are made at 1.5× drug concentration and not the usual 2×. Wash CC2 stained plate, again, leaving residual volume of 50 pt. Add 100 uL/well of the AY17 solution. Stain for 15 minutes in the dark at RT. Run plate on the optical reader.
The instrument comprises a microtiter plate handler, an optical system for exciting the coumarin dye while simultaneously recording the coumarin and oxonol emissions, a waveform generator, a current- or voltage-controlled amplifier, and a device for inserting electrodes in well. Under integrated computer control, this instrument passes user-programmed electrical stimulus protocols to cells within the wells of the microtiter plate.
Insert or use electrodes into each well to be assayed.
Use the current-controlled amplifier to deliver stimulation wave pulses for 3-5 s. Two seconds of pre-stimulus recording are performed to obtain the un-stimulated intensities. Five seconds of post-stimulation recording are performed to examine the relaxation to the resting state.
Data are analyzed and reported as normalized ratios of background-subtracted emission intensities measured in the 460 nm and 580 nm channels. Background intensities are then subtracted from each assay channel. Background intensities are obtained by measuring the emission intensities during the same time periods from identically treated assay wells in which there are no cells. The response as a function of time is then reported as the ratios obtained using the following formula: […]
The data is further reduced by calculating the initial (Ri) and final (Rf) ratios. These are the average ratio values during part or all of the pre-stimulation period, and during sample points during the stimulation period. The response to the stimulus R=Rf/Ri is then calculated.
Control responses are obtained by performing assays in the presence of a compound with the desired properties (positive control), such as mibefradil, and in the absence of pharmacological agents (negative control). Responses to the negative (N) and positive (P) controls are calculated as above.

T1 sequence (Q00975 whole entry): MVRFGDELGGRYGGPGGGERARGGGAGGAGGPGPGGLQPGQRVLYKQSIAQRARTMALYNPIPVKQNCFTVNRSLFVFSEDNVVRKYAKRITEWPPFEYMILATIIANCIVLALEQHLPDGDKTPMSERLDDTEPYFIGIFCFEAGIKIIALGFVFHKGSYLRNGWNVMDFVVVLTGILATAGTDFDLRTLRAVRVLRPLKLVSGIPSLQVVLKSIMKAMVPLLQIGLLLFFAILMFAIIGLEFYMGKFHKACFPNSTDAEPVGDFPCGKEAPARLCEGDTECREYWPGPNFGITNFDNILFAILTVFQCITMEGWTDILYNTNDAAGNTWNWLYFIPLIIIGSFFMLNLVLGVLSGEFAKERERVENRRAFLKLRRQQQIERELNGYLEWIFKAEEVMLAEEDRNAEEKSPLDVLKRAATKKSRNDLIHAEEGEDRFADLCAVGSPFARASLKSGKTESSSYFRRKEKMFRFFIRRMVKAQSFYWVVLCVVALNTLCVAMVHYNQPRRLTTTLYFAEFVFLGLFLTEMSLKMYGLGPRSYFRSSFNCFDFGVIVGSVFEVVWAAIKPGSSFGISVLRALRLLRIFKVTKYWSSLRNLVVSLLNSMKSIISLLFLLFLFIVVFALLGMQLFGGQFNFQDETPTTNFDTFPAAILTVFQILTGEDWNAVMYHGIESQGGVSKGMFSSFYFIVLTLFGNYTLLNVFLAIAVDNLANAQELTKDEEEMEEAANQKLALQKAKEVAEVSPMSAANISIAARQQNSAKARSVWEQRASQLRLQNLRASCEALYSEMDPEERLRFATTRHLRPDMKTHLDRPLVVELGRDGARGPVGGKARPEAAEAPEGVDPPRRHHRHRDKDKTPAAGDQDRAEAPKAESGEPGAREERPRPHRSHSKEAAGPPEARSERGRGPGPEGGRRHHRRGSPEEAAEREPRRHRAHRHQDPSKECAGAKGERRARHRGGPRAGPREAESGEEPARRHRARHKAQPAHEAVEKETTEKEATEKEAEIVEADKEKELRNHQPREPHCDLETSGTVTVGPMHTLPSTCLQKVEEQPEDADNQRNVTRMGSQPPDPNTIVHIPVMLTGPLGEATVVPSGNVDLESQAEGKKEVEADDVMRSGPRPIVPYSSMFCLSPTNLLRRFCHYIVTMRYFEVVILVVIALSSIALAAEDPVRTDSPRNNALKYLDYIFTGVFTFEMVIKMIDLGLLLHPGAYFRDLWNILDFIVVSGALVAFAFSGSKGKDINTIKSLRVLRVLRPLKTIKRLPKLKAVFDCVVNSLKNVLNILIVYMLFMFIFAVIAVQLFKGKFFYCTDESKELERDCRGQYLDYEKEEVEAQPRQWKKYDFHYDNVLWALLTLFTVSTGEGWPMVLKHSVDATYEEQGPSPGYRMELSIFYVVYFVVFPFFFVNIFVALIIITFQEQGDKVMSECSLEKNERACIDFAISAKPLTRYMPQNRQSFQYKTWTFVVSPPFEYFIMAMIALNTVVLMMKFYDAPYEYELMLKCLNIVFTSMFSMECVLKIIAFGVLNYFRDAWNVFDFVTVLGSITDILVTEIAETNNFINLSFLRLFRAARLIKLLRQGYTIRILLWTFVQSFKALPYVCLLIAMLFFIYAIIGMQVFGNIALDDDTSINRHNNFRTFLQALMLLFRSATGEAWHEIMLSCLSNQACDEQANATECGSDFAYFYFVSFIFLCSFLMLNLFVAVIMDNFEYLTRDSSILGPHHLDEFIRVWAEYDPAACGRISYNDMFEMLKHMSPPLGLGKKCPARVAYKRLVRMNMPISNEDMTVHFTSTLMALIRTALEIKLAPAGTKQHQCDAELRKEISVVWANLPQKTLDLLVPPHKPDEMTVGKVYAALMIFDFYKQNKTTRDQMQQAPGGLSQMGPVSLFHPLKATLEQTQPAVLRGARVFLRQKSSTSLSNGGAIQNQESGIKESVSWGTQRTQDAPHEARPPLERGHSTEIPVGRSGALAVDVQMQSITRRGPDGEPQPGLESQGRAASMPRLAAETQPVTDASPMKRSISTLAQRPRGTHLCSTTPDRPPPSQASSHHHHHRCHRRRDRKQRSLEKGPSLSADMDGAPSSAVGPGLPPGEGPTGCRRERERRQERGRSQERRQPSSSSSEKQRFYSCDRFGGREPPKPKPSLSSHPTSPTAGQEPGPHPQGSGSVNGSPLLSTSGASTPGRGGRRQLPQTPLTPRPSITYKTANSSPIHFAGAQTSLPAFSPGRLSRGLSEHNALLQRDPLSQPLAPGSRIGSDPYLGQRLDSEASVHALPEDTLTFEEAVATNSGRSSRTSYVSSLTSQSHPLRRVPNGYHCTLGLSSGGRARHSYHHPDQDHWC
T1 sequence (P54284 whole entry partner): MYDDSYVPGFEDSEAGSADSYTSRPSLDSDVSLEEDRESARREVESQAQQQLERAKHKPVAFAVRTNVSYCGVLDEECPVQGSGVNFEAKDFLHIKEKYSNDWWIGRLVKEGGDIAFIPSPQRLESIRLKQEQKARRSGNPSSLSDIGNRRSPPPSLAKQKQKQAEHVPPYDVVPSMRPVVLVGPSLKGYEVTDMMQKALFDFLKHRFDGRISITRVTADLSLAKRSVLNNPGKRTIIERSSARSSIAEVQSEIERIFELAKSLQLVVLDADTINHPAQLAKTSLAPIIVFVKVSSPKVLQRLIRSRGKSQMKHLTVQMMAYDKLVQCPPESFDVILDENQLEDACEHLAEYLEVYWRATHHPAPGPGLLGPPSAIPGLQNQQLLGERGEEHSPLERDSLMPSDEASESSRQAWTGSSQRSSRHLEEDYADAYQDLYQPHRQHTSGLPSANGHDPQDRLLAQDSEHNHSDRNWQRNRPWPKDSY
T1 sequence (P54289 25-946 partner limits assumed): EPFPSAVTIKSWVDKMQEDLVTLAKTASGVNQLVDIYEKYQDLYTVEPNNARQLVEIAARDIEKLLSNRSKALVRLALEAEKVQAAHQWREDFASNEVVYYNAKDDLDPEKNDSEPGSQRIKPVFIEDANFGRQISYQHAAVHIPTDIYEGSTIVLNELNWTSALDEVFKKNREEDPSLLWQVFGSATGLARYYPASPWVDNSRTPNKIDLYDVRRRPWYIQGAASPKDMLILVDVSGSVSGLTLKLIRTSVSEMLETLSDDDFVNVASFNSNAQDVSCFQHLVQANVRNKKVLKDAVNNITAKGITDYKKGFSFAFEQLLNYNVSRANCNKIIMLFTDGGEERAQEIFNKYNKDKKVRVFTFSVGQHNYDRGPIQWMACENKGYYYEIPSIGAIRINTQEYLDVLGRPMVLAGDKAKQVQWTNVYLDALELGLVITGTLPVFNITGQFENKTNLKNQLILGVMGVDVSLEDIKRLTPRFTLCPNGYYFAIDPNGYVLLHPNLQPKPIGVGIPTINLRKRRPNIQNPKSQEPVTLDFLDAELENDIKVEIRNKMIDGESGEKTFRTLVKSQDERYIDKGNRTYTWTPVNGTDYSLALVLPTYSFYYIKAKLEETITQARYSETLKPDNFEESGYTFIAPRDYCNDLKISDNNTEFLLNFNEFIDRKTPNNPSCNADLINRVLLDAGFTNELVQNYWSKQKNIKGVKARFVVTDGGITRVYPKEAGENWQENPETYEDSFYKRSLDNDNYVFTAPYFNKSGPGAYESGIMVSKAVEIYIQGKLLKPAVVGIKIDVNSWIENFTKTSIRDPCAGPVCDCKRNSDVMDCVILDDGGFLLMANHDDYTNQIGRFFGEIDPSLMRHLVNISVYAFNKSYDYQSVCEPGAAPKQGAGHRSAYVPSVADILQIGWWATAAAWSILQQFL
T1 sequence (P54289 947-1103 partner limits assumed): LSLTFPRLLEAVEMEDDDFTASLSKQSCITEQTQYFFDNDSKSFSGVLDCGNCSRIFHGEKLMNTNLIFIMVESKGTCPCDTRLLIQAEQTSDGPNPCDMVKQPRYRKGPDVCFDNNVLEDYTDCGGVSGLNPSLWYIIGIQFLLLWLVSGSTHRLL

Row | Structure (SMILES) | IC50 [µM]
1 | CC1CCN(S(=O)(=O)c2ccc3[nH]c(C(=O)N4CCC5(CC4)OCCO5)cc3c2)CC1 [compound 54] | 5 to 20

same assay, conditions: Table 3, biological assay data; read-out: IC50

Row | Structure (SMILES) | IC50 [µM]
2 | CCN(CC)C(=O)c1cc2cc(S(=O)(=O)N3CCCCCC3)ccc2o1 [compound 1] | 5 to 20
3 | CC1CC(C)CN(S(=O)(=O)c2ccc3oc(C(=O)NCCc4ccccc4)cc3c2)C1 (stereo not drawn) [compound 2] | < 5
4 | Cc1c(C(=O)N2CCN(C)CC2)[nH]c2ccc(S(=O)(=O)N3CCCCCC3)cc12 [compound 3] | < 20
5 | Cc1c(C(=O)N2CCC(C)CC2)oc2ccc(S(=O)(=O)N3CCC4(CC3)OCCO4)cc12 [compound 4] | 5 to 20
6 | O=C(NCCCc1ccccc1)c1cc2cc(S(=O)(=O)N3CCCCCC3)ccc2[nH]1 [compound 5] | < 5
7 | Cc1c(C(=O)NCCC2CCOCC2)oc2ccc(S(=O)(=O)N3CC(C)CC(C)C3)cc12 (stereo not drawn) [compound 6] | < 5
8 | CCN(CC)C(=O)c1[nH]c2ccc(S(=O)(=O)N3CC(C)CC(C)C3)cc2c1C (stereo not drawn) [compound 7] | < 5
9 | CC1CCN(S(=O)(=O)c2ccc3[nH]c(C(=O)NCCC4CCOCC4)cc3c2)CC1 [compound 8] | < 5
10 | Cc1c(C(=O)NC2CCCCC2)oc2ccc(S(=O)(=O)N3CCCC(C)C3)cc12 (stereo not drawn) [compound 9] | < 5
11 | CNC(=O)c1oc2ccc(S(=O)(=O)N3CCC(C)CC3)cc2c1C [compound 10] | 5 to 20
12 | CC1CCN(S(=O)(=O)c2ccc3[nH]c(CN4CCCCC4)cc3c2)CC1 [compound 11] | < 5
13 | Cc1c(C(=O)N2CCCC2)oc2ccc(S(=O)(=O)N3CCC(C)CC3)cc12 [compound 12] | 5 to 20
14 | Cc1c(C(=O)NCCc2ccccc2)[nH]c2ccc(S(=O)(=O)N3CC(C)CC(C)C3)cc12 (stereo not drawn) [compound 13] | < 5
15 | Cc1c(C(=O)N2CCCCC2C)oc2ccc(S(=O)(=O)N3CCOCC3)cc12 (stereo not drawn) [compound 14] | < 20
16 | CCN(CC)C(=O)c1oc2ccc(S(=O)(=O)N3CCC(C)CC3)cc2c1C [compound 15] | 5 to 20
17 | CC1CC(C)CN(S(=O)(=O)c2ccc3[nH]c(C(=O)NCC4CCCO4)cc3c2)C1 (stereo not drawn) [compound 16] | < 5
18 | CC1CC(C)CN(C(=O)c2cc3cc(S(=O)(=O)N4CCCCCC4)ccc3[nH]2)C1 (stereo not drawn) [compound 17] | 5 to 20
19 | Cc1c(C(=O)N2CCCC2)oc2ccc(S(=O)(=O)N3CCCCC3)cc12 [compound 18] | 5 to 20
20 | CCOC(=O)C1CCN(C(=O)c2oc3ccc(S(=O)(=O)N4CCCCCC4)cc3c2C)CC1 [compound 19] | < 5
21 | Cc1c(C(=O)NC2CC2)oc2ccc(S(=O)(=O)Nc3ncccn3)cc12 [compound 20] | < 20
22 | Cc1c(C(=O)NC(C)C)oc2ccc(S(=O)(=O)N3CC(C)CC(C)C3)cc12 (stereo not drawn) [compound 21] | < 5

Row | Structure (SMILES) | IC50 [µM]
23 | CNC(=O)c1oc2ccc(S(=O)(=O)N3CCOCC3)cc2c1C [compound 22] | < 20
24 | O=C(NCCC1CCOCC1)c1cc2cc(S(=O)(=O)N3CCCCCC3)ccc2o1 [compound 23] | < 5
25 | Cc1c(C(=O)NC2CC2)oc2ccc(S(=O)(=O)N(CCN(C)C)Cc3ccccc3)cc12 [compound 24] | < 20
26 | Cc1c(C(=O)NC2CC2)oc2ccc(S(=O)(=O)NCCN3CCCCC3)cc12 [compound 25] | < 20
27 | Cc1c(C(=O)N2CCCC2)oc2ccc(S(=O)(=O)N3CCOCC3)cc12 [compound 26] | < 20
28 | Cc1c(C(=O)NCCC2CCOCC2)[nH]c2ccc(S(=O)(=O)N3CCC(C)CC3)cc12 [compound 27] | 5 to 20
29 | Cc1c(C(=O)NC(C)c2ccccc2)oc2ccc(S(=O)(=O)N3CCCC3)cc12 (stereo not drawn) [compound 28] | < 20
30 | CC1CC(C)CN(C(=O)c2cc3cc(S(=O)(=O)N4CC(C)CC(C)C4)ccc3o2)C1 (stereo not drawn) [compound 29] | < 5
31 | CNC(=O)c1[nH]c2ccc(S(=O)(=O)N3CCC(C)CC3)cc2c1C [compound 30] | 5 to 20
32 | CCN(CC)C(=O)c1cc2cc(S(=O)(=O)N3CC(C)CC(C)C3)ccc2o1 (stereo not drawn) [compound 31] | < 5
33 | Cc1c(C(=O)NCC2CCCO2)oc2ccc(S(=O)(=O)N3CC(C)CC(C)C3)cc12 (stereo not drawn) [compound 32] | < 5
34 | Cc1c(C(=O)N2CC(C)CC(C)C2)oc2ccc(S(=O)(=O)N3CCC(C)CC3)cc12 (stereo not drawn) [compound 33] | 5 to 20
35 | O=C(NCc1ccccc1)c1cc2cc(S(=O)(=O)N3CCCCCC3)ccc2o1 [compound 34] | < 5
36 | Cc1c(C(=O)NC2CC2)oc2ccc(S(=O)(=O)N3CCC(F)(F)CC3)cc12 [compound 35] | 5 to 20
37 | CC1CCN(S(=O)(=O)c2ccc3[nH]c(C(=O)NCc4ccccc4)cc3c2)CC1 [compound 36] | < 5
38 | CNC(=O)c1cc2cc(S(=O)(=O)N3CC(C)CC(C)C3)ccc2[nH]1 (stereo not drawn) [compound 37] | < 5
39 | Cc1c(C(=O)NCC2CCOCC2)oc2ccc(S(=O)(=O)N3CCCCCC3)cc12 [compound 38] | 5 to 20
40 | Cc1c(C(=O)NC2CCC(C)CC2)oc2ccc(S(=O)(=O)N3CCOCC3)cc12 (stereo not drawn) [compound 39] | < 20
41 | O=C(NCCCc1ccccc1)c1cc2cc(S(=O)(=O)N3CCCCCC3)ccc2o1 [compound 40] | < 5
42 | O=C(NC1CCCC1)c1cc2cc(S(=O)(=O)N3CCCCCC3)ccc2[nH]1 [compound 41] | 5 to 20
43 | Cc1c(C(=O)N2CCCCC2C)oc2ccc(S(=O)(=O)N3CCC(C)CC3)cc12 (stereo not drawn) [compound 42] | < 5

Row | Structure (SMILES) | IC50 [µM]
44 | CN(Cc1ccccc1)C(=O)c1cc2cc(S(=O)(=O)N3CCCCCC3)ccc2o1 [compound 43] | < 5
45 | Cc1c(C(=O)NCc2ccccc2)oc2ccc(S(=O)(=O)N3CCCCCC3)cc12 [compound 44] | 5 to 20
46 | Cc1c(C(=O)N2CCCCCC2)oc2ccc(S(=O)(=O)N3CCCCCC3)cc12 [compound 45] | < 5
47 | CCN(CC)C(=O)c1cc2cc(S(=O)(=O)N3CCCCCC3)ccc2[nH]1 [compound 46] | < 5
48 | Cc1c(C(=O)NC(C)C)oc2ccc(S(=O)(=O)N3CCCC(C)C3)cc12 (stereo not drawn) [compound 47] | 5 to 20
49 | O=C(NCCc1ccccc1)c1cc2cc(S(=O)(=O)N3CCCCCC3)ccc2o1 [compound 48] | < 5
50 | Cc1c(C(=O)NCCCc2ccccc2)[nH]c2ccc(S(=O)(=O)N3CC(C)CC(C)C3)cc12 (stereo not drawn) [compound 49] | < 5
51 | Cc1c(C(=O)NC2CC2)oc2ccc(S(=O)(=O)Nc3ccccn3)cc12 [compound 50] | < 20
52 | CCN(CC)S(=O)(=O)c1ccc2oc(C(=O)NC)c(C)c2c1 [compound 51] | < 20
53 | CC(C)N(C(=O)c1cc2cc(S(=O)(=O)N3CCCCCC3)ccc2[nH]1)C(C)C [compound 52] | 5 to 20
54 | CC1CC(C)CN(S(=O)(=O)c2ccc3oc(C(=O)NCCCc4ccccc4)cc3c2)C1 (stereo not drawn) [compound 53] | < 5
55 | CC1CCCN(C(=O)c2cc3cc(S(=O)(=O)N4CCCCCC4)ccc3[nH]2)C1 (stereo not drawn) [compound 55] | < 5
56 | Cc1c(C(=O)NCCCc2ccccc2)oc2ccc(S(=O)(=O)N3CC(C)CC(C)C3)cc12 (stereo not drawn) [compound 56] | < 5
57 | Cc1c(C(=O)NC(C)C2=CCCCC2)oc2ccc(S(=O)(=O)N3CCCCC3)cc12 (stereo not drawn) [compound 57] | 5 to 20
58 | Cc1c(C(=O)N2CCCC(C)C2)oc2ccc(S(=O)(=O)N3CCC(C)CC3)cc12 (stereo not drawn) [compound 58] | 5 to 20
59 | Cc1c(C(=O)N2CCCCC2C)oc2ccc(S(=O)(=O)N3CCCCC3)cc12 (stereo not drawn) [compound 59] | 5 to 20
60 | Cc1c(C(=O)N2CC(C)CC(C)C2)[nH]c2ccc(S(=O)(=O)N3CC(C)CC(C)C3)cc12 (stereo not drawn) [compound 60] | < 5
61 | Cc1c(C(=O)N2CCCCC2C)oc2ccc(S(=O)(=O)N3CCCC(C)C3)cc12 (stereo not drawn) [compound 61] | 5 to 20
62 | Cc1c(C(=O)NC2CCCCC2)oc2ccc(S(=O)(=O)N3CC(C)CC(C)C3)cc12 (stereo not drawn) [compound 62] | < 5
63 | Cc1c(C(=O)NCc2cccnc2)oc2ccc(S(=O)(=O)N3CC(C)CC(C)C3)cc12 (stereo not drawn) [compound 63] | 5 to 20

From patent US8211935B2, “Heterocyclic derivatives for modulation of calcium channels” (Vertex Pharmaceuticals Incorporated, priority 2004, dated 2012)
